Data taken from publication PMC8070004, “Isorhamnetin Ameliorates Dry Eye Disease via CFTR Activation in Mice” (International Journal of Molecular Sciences, 2021).

Experiments:
CFTR = target: T1, CFTR (Mus musculus, UniProt P26361); assay: Open-circuit ocular surface potential difference (PD) in CD-1 mice; format: in vivo; conditions: 20 μM CFTRinh-172
T1 construct: from tissue; host or cells: ocular surface of anesthetized CD-1 mice (in vivo)

CD-1 mice = assay: Tear volume by phenol red thread tear test in normal CD-1 mice; format: in vivo, mouse; conditions: isorhamnetin 30 µM with CFTRinh-172 20 µM
Description: Tear volume was measured using phenol red threads (Zone-Quick, Oasis Medical, Glendora, CA, USA) by placing them in the lateral canthi of normal CD-1 or dry eye model-treated BL6 mice for 10 s using forceps. Tear volume was measured using a Vernier caliper as the length of thread wetting under a microscope. For normal CD-1 mice, serial measurements were done to evaluate compound pharmacodynamics compared to the vehicle after topical application of a single, 2.5-μL drop of compound formulations containing 20 μM forskolin, 30 μM isorhamnetin, or 20 μM CFTRinh-172 in PBS with 0.1% DMSO.

WT-CFTR = WT-CFTR (Homo sapiens, UniProt P13569); assay: Whole-cell patch clamp in CHO-K1 cells expressing WT-CFTR; format: cell-based; parameters: expressed in transfected cells; host or cells: CHO-K1; conditions: 10 μM CFTRinh-172
Description: Whole-cell, patch clamp recordings were performed on CFTR-expressing CHO cells. The bath solution contained (in mM) 140 NMDG-Cl, 1 CaCl2, 1 MgCl2, 10 glucose, and 10 HEPES (pH 7.4). The pipette solution contained (in mM) 130 CsCl, 0.5 EGTA, 1 MgCl2, 1 Tris-ATP, and 10 HEPES (pH 7.2). […] Seal resistances were between 3 and 10 GΩ. After establishing the whole-cell configuration, CFTR was activated by forskolin and/or isorhamnetin. […] Recordings were made at room temperature using an Axopatch-200B (Axon Instruments, San Jose, CA, USA). Currents were digitized with a Digidata 1440A converter (Axon Instruments), filtered at 5 kHz, and sampled at 1 kHz.

[1] = tested on: conjunctival epithelial (ConjE) cells; assay: MTS cell viability assay in ConjE cells; format: cell-based, human; conditions: 48 h; isorhamnetin 30 μM, Triton X-100 0.01%
Description: (§1) Immortalized human CorE [47] and immortalized human ConjE (Innoprot, Bizkaia, Spain) cells were plated on 96-well microplates. After 24 h incubation, cells were treated with 30 μM isorhamnetin or 0.01% Triton X-100 and then they were incubated for two days. An equal amount of DMSO was added to the control. The culture medium and the compounds were changed every 12 h. To assess cell proliferation, after 48 h of incubation with the compound, the cells were reincubated with MTS for 1 h. The soluble formazan produced by cellular reduction of MTS was quantified by measuring the absorbance at 490 nm with Infinite M200 (Tecan, Grödig, Austria) microplate reader. MTS assay was done using CellTiter 96 AQueous One Solution Cell Proliferation Assay kit (Promega, Madison, WI, USA).

[2] = tested on: corneal epithelial (CorE) cells; assay: MTS cell viability assay in CorE cells; format: cell-based, human; conditions: 48 h; isorhamnetin 30 μM, Triton X-100 0.01%
Description: as §1

Chain of WT-CFTR (P13569 whole entry): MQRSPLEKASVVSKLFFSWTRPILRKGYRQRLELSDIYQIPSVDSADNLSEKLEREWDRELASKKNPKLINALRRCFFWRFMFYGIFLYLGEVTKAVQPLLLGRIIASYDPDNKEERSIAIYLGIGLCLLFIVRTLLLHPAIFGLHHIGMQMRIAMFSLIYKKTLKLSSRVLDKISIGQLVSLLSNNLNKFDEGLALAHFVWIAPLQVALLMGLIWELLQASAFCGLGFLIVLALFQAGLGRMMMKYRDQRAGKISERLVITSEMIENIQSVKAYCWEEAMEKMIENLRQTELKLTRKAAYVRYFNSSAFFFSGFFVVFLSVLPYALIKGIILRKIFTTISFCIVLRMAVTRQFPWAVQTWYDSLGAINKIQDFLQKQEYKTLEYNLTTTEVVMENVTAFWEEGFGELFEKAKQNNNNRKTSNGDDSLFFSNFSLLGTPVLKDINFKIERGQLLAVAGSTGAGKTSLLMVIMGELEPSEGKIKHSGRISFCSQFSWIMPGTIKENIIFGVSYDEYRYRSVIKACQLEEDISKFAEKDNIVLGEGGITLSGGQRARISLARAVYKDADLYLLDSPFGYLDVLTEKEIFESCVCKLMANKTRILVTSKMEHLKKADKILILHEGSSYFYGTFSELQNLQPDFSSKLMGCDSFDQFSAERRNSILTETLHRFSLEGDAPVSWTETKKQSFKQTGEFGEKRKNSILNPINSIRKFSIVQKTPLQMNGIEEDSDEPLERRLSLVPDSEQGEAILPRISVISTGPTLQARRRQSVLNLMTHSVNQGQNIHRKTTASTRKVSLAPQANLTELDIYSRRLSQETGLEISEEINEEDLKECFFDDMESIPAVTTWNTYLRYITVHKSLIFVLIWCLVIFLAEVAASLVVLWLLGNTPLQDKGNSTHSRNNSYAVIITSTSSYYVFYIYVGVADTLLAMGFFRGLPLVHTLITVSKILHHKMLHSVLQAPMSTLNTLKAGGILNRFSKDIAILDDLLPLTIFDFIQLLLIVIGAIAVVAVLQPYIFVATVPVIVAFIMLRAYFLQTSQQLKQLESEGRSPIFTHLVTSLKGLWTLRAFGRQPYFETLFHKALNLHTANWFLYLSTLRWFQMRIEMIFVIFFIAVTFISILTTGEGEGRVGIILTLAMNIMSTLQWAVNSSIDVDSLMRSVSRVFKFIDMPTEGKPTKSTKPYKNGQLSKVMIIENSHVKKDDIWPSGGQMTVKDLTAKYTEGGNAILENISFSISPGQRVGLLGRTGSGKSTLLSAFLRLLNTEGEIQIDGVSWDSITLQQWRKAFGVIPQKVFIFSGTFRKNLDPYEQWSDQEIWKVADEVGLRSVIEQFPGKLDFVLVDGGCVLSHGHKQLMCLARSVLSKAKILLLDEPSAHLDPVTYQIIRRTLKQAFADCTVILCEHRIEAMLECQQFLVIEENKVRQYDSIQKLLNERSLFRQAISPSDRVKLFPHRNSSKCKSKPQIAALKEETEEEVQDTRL
T1 sequence (P26361 whole entry): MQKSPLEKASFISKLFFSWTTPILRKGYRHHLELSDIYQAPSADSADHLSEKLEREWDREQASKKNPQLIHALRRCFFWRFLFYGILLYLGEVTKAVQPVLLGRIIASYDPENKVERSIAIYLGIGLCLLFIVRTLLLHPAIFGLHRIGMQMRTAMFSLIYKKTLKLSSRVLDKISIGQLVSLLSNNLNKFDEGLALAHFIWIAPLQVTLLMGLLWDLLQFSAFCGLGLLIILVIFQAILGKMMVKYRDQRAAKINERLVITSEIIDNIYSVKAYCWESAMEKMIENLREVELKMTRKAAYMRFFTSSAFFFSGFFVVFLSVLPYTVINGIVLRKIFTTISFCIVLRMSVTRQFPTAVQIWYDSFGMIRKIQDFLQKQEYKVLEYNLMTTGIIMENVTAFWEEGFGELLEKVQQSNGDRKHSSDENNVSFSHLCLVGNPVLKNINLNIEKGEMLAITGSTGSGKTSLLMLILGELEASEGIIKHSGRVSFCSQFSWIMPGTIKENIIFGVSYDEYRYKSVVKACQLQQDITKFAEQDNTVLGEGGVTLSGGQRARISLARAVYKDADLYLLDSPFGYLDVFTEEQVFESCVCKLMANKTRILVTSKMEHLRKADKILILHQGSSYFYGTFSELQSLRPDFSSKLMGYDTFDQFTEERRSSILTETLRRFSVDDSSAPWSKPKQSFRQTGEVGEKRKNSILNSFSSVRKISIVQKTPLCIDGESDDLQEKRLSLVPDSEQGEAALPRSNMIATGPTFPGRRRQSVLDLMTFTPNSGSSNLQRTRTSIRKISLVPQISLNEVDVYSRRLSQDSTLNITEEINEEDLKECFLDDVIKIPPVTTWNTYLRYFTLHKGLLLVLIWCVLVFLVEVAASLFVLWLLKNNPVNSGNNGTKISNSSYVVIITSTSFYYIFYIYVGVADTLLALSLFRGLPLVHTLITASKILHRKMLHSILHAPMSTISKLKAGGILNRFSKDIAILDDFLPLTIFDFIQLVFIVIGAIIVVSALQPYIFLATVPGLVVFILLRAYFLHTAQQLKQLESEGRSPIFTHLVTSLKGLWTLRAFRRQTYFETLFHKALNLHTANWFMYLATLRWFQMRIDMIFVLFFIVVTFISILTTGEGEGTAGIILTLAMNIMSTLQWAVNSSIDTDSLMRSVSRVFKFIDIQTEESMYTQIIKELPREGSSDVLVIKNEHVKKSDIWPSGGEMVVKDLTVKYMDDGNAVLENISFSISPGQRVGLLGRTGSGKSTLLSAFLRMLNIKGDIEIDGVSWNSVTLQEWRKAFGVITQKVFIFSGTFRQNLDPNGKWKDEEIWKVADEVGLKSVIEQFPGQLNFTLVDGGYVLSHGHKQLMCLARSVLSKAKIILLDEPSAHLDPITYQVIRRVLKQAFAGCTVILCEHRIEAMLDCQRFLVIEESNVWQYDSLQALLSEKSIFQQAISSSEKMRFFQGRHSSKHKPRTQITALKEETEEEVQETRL

| Compound | isorhamnetin-induced hyperpolarization of ocular PD (CFTR) | isorhamnetin-increased tear volume (CD-1 mice) | block of isorhamnetin-induced CFTR Cl- currents (whole-cell) (WT-CFTR) | cell viability (MTS), ConjE cells [1] | cell viability (MTS), CorE cells [2] |
| --- | --- | --- | --- | --- | --- |
| O=C(O)c1ccc(/C=C2\SC(=S)N(c3cccc(C(F)(F)F)c3)C2=O)cc1 [CFTRinh-172, reference compound] | inhibited | completely suppressed | almost completely blocked | – | – |
| Triton X-100 [reference compound] | – | – | – | markedly decreased cell viability | markedly decreased cell viability |
